Measurements: the supplement of paper PMC9780213

Tests used:
Settings in all cases: treatment time: 24 h
U2OS = assay: cell count relative to DMSO control (panel A, nuclei/RNA/PMG/mitochondria stain) (fraction of control); higher = more cells (less toxicity)
Description: (§1)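 U2OS-derived cells in 384-well plates were treated for 24 h with a 7-point 2-fold dilution series (top dose 20 µM for most compounds; final max DMSO 1%), then fixed, stained in four marker panels and imaged on a Cellomics ArrayScan. Cell count per treatment (three replicate plates merged) is given as a fraction of DMSO control. Panel A used parental U2OS, panel B U2OS-mOrange2-Peroxisome, panel C1 U2OS-LMNB1-TUBA1B-ACTB (DRAQ5 nuclei).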

U2OS-mOrange2-Peroxisome = assay: cell count relative to DMSO control (panel B, lysosome/peroxisome/lipid stain) (fraction of control); higher = more cells (less toxicity)
Description: as §1

U2OS-LMNB1-TUBA1B-ACTB = assay: cell count relative to DMSO control (panel C1, DRAQ5/ER stain) (fraction of control); higher = more cells (less toxicity)
Description: as §1

CCOc1ccccc1-n1c(C(C)N2CCN(C(=O)COc3ccc(Cl)cc3)CC2)nc2ccccc2c1=O (stereo not drawn) [erastin]
cell count
Settings | 0.3125 µM | 0.625 µM | 1.25 µM | 2.5 µM | 5 µM | 10 µM | 20 µM
U2OS | 1.04 | 1.07 | 1.03 | 1.02 | 1.09 | 0.978 | 0.982
U2OS-LMNB1-TUBA1B-ACTB | 1.11 | 1.14 | 1.06 | 1 | 1.11 | 1.03 | 0.905
U2OS-mOrange2-Peroxisome | 0.603 | 0.516 | 0.65 | 0.612 | 0.749 | 0.77 | 0.579

O=c1[nH]c(=O)n([C@H]2C[C@H](O)[C@@H](CO)O2)cc1F [floxuridine]
cell count
Settings | 0.3125 µM | 0.625 µM | 1.25 µM | 2.5 µM | 5 µM | 10 µM | 20 µM
U2OS | 0.806 | 0.815 | 0.744 | 0.681 | 0.609 | 0.58 | 0.558
U2OS-LMNB1-TUBA1B-ACTB | 1.06 | 1 | 0.979 | 0.737 | 0.792 | 0.929 | 0.892
U2OS-mOrange2-Peroxisome | 1.52 | 1.54 | 1.34 | 1.14 | 1.11 | 0.829 | 1.31

CC(C)n1c(/C=C/C(O)CC(O)CC(=O)O)c(-c2ccc(F)cc2)c2ccccc21 (stereo not drawn) [fluvastatin]
cell count
Settings | 0.3125 µM | 0.625 µM | 1.25 µM | 2.5 µM | 5 µM | 10 µM | 20 µM
U2OS | 0.901 | 0.848 | 0.867 | 0.777 | 0.826 | 0.702 | 0.441
U2OS-LMNB1-TUBA1B-ACTB | 1.01 | 0.939 | 0.943 | 0.931 | 0.899 | 0.892 | 0.849
U2OS-mOrange2-Peroxisome | 0.991 | 0.839 | 0.835 | 0.93 | 0.815 | 0.872 | 0.22

Nc1ccn([C@@H]2O[C@H](CO)[C@@H](O)C2(F)F)c(=O)n1 [gemcitabine]
cell count
Settings | 0.3125 µM | 0.625 µM | 1.25 µM | 2.5 µM | 5 µM | 10 µM | 20 µM
U2OS | 1.03 | 0.658 | 0.435 | 0.374 | 0.396 | 0.379 | 0.412
U2OS-LMNB1-TUBA1B-ACTB | 1.03 | 0.582 | 0.411 | 0.391 | 0.383 | 0.396 | 0.388
U2OS-mOrange2-Peroxisome | 0.811 | 0.529 | 0.498 | 0.576 | 0.543 | 0.595 | 0.496

Fc1cc(F)c2c(c1)[C@H]1C=CC[C@H]1C(c1cccnc1)N2 (stereo partly drawn) [golgicide-A]
cell count
Settings | 0.3125 µM | 0.625 µM | 1.25 µM | 2.5 µM | 5 µM | 10 µM | 20 µM
U2OS | 0.981 | 1 | 0.929 | 1.06 | 1.03 | 0.826 | 0.566
U2OS-LMNB1-TUBA1B-ACTB | 0.952 | 1.05 | 0.982 | 1.1 | 1.14 | 1.05 | 0.778
U2OS-mOrange2-Peroxisome | 0.814 | 0.73 | 0.804 | 0.719 | 0.89 | 0.916 | 0.833

O=C(CCCN1CCC(O)(c2ccc(Cl)cc2)CC1)c1ccc(F)cc1 [haloperidol]
cell count
Settings | 0.3125 µM | 0.625 µM | 1.25 µM | 2.5 µM | 5 µM | 10 µM | 20 µM
U2OS | 1.02 | 0.985 | 0.893 | 0.939 | 0.979 | 1 | 0.956
U2OS-LMNB1-TUBA1B-ACTB | 1.03 | 1.05 | 1.03 | 0.979 | 1.05 | 1.11 | 1.05
U2OS-mOrange2-Peroxisome | 1.19 | 1.13 | 1.11 | 0.88 | 1.29 | 1.16 | 1.32

CCc1c2c(nc3ccc(OC(=O)N4CCC(N5CCCCC5)CC4)cc13)-c1cc3c(c(=O)n1C2)COC(=O)[C@]3(O)CC [irinotecan]
cell count
Settings | 0.3125 µM | 0.625 µM | 1.25 µM | 2.5 µM | 5 µM | 10 µM | 20 µM
U2OS | 0.95 | 0.795 | 0.732 | 0.665 | 0.64 | 0.592 | 0.612
U2OS-LMNB1-TUBA1B-ACTB | 0.966 | 0.998 | 0.849 | 0.82 | 0.79 | 0.694 | 0.66
U2OS-mOrange2-Peroxisome | 0.759 | 0.66 | 0.641 | 0.621 | 0.666 | 0.771 | 0.742

C/C1=C/C(=O)O[C@@H]2C[C@@H](CC[C@H](C)/C=C\C=C\CC1)O[C@@](O)([C@@H]1CSC(=O)N1)C2 [latrunculin-a]
cell count
Settings | 0.000781 µM | 0.0015625 µM | 0.003125 µM | 0.00625 µM | 0.0125 µM | 0.025 µM | 0.05 µM
U2OS | 0.372 | 0.438 | 0.369 | 0.312 | 0.278 | 0.194 | 0.121
U2OS-LMNB1-TUBA1B-ACTB | 0.337 | 0.521 | 0.464 | 0.461 | 0.379 | 0.304 | 0.196
U2OS-mOrange2-Peroxisome | 0.66 | 0.625 | 0.479 | 0.467 | 0.312 | 0.155 | 0.0636

CC(=O)N[C@@H](CC(C)C)C(=O)N[C@@H](CC(C)C)C(=O)N[C@H](C=O)CCCN=C(N)N [leupeptin]
cell count
Settings | 0.3125 µM | 0.625 µM | 1.25 µM | 2.5 µM | 5 µM | 10 µM | 20 µM
U2OS | 1.07 | 1.09 | 0.933 | 1.09 | 1.04 | 1.03 | 1.01
U2OS-LMNB1-TUBA1B-ACTB | 1.07 | 1.1 | 1.06 | 1.16 | 1.05 | 1.02 | 1.01
U2OS-mOrange2-Peroxisome | 0.839 | 0.806 | 0.749 | 0.771 | 0.895 | 0.952 | 1.27

O=NN(CCCl)C(=O)NC1CCCCC1 [lomustine]
cell count
Settings | 0.3125 µM | 0.625 µM | 1.25 µM | 2.5 µM | 5 µM | 10 µM | 20 µM
U2OS | 0.856 | 0.819 | 0.952 | 0.895 | 1.02 | 0.818 | 0.7
U2OS-LMNB1-TUBA1B-ACTB | 0.906 | 0.972 | 0.927 | 0.932 | 1.02 | 0.856 | 0.73
U2OS-mOrange2-Peroxisome | 0.854 | 1.08 | 0.93 | 0.952 | 1.22 | 1.12 | 0.879

COc1cc(-n2c(=S)[nH]c3ccccc3c2=O)c(Cl)cc1Cl [mdivi-1]
cell count
Settings | 0.3125 µM | 0.625 µM | 1.25 µM | 2.5 µM | 5 µM | 10 µM | 20 µM
U2OS | 1.02 | 0.927 | 1.04 | 1.01 | 1 | 0.643 | 1.04
U2OS-LMNB1-TUBA1B-ACTB | 1.02 | 1.01 | 1.08 | 1.03 | 1.02 | 0.74 | 1.09
U2OS-mOrange2-Peroxisome | 0.787 | 0.837 | 0.803 | 1.03 | 1.03 | 0.618 | 0.921

CCN(CC)CCCC(C)Nc1c2ccc(Cl)cc2nc2ccc(OC)cc12 (stereo not drawn) [mepacrine]
cell count
Settings | 0.3125 µM | 0.625 µM | 1.25 µM | 2.5 µM | 5 µM | 10 µM | 20 µM
U2OS | 1.02 | 0.981 | 0.98 | 0.921 | 0.925 | 0.85 | 0.616
U2OS-LMNB1-TUBA1B-ACTB | 1.13 | 1.01 | 1.03 | 1.07 | 1.08 | 1.05 | 0.727
U2OS-mOrange2-Peroxisome | 0.781 | 0.889 | 0.854 | 0.763 | 0.778 | 0.733 | 0.449

CN(Cc1cnc2nc(N)nc(N)c2n1)c1ccc(C(=O)N[C@@H](CCC(=O)O)C(=O)O)cc1 [methotrexate]
cell count
Settings | 0.07812 µM | 0.15625 µM | 0.3125 µM | 0.625 µM | 1.25 µM | 2.5 µM | 5 µM
U2OS | 0.782 | 0.699 | 0.705 | 0.696 | 0.691 | 0.689 | 0.561
U2OS-LMNB1-TUBA1B-ACTB | 0.922 | 0.8 | 0.838 | 0.851 | 0.728 | 0.663 | 0.497
U2OS-mOrange2-Peroxisome | 0.761 | 0.757 | 0.663 | 0.807 | 0.808 | 0.78 | 0.748
